Experimental data reported in US10179914B2, “CDC25A inhibitor for the treatment of drug resistant cancer or for the prevention of tumor relapse” (INSERM (INSTITUT NATIONAL DE LA SANTÉ ET DE LA RECHERCHE …, priority 2014, dated 2019).

Experiments:
CDC25A [1] = experiment: CDC25A protein level by western blot; format: cell-based, human; conditions: for CDC25A protein level: 2 hours
Description: (a) MV4-11 (left panel) and MOLM-14 (right panel) FLT3-ITD expressing cells were treated for 2 hours with FLT3 inhibitor III (100 nM), and the protein levels of CDC25A, CDC25B, CDC25C, Cyclin A, Cyclin D1 and p27Kip1 were analyzed by western blot. (b) MOLM-14 (FLT3-ITD postive), KG1 and HL-60 (FLT3 wt positive) and K562 (FLT3 negative) cell lines were treated for 2 hours with FLT3 inhibitor III and the level of CDC25A was analyzed by western blot. Actin was used as a loading control.
(a) MV4-11 (left panel) and MOLM-14 (right panel) cells were treated for 2 hours with STAT5 inhibitor (100 nM). CDC25A, Pim1, and STAT5 protein and phosphorylation levels were analyzed by western blot. (b) MV4-11 and MOLM-14 cells were transfected for 24 hours with STAT5A/B siRNA and the impact on CDC25A protein level was analyzed by western blot. […] Actin was used as a loading control in these experiments. ns: non specific.
(a) MV4-11 cells were first treated by cycloheximide (50 μg/mL) for 90 minutes in order to completely down regulate CDC25A. […] The FLT3 inhibitor was added 30 minutes before medium wash. This western blot is representative of three independent experiments. […] (b) CDC25A mRNA expression was measured by quantitative RT-PCR after FLT3 inhibition for 2 hours (100 nM). […] (c) MV4-11 cells were treated with cycloheximide (50 μg/mL) for the indicated times. FLT3 inhibitor III (100 nM) was added 30 minutes before cycloheximide treatment, and left in the medium. This western blot is representative of three independent experiments.
Cell lines and reagents. […] Concerning MOLM-14 cell line, the presence of a monoallelic 21 bp FLT3-ITD mutation and of an MLL-containing ins(11; 9)(q23;p22p23) were verified (Hematology laboratory of Toulouse University Hospital, Prof E. Delabesse and Dr I. Luquet). KG1 and HL-60 (ACC-14 and ACC-3, DSMZ) cell lines were grown in Iscove's Modified Dulbecco's Medium (IMDM, Gibco) plus 20% FBS. All cells were grown in the presence of 100 units/ml of penicillin and streptomycin (Invitrogen) at 37° C. and 5% CO2.
siRNA. The MV4-11 cell line was transfected with the Amaxa nucleofection technology (Lonza, Koeln, Germany). […] Twenty-four or forty-eight hours after transfection, cells were counted (trypan blue staining), and western blotting was performed.
Western blot. 2×10^6 cells were usually lysed in 100 μL of NuPAGE® LDS Sample Buffer (Novex, Life Technologies, Carlsbad, Calif., USA), sonicated for 15 seconds, and boiled for 3 minutes. Proteins were then resolved on NuPAGE® 4-12% Bis-Tris Gels and transferred to nitrocellulose membrane. Saturation of the membrane was done for 1 hour in Tris Buffer Saline with Tween 0.1% (TBS-T) containing 5% non-fat milk or 5% bovine serum albumin. Membranes were blotted with proper antibodies overnight at 4° C., washed thrice with TBS-T, and incubated for 30 minutes with HRP-conjugated secondary antibody (Promega, Madison, Wis., USA).

Cdc25C = Cdc25C (Homo sapiens, UniProt P30307); conditions: cited from earlier work
Chain of Cdc25C (P30307 whole entry): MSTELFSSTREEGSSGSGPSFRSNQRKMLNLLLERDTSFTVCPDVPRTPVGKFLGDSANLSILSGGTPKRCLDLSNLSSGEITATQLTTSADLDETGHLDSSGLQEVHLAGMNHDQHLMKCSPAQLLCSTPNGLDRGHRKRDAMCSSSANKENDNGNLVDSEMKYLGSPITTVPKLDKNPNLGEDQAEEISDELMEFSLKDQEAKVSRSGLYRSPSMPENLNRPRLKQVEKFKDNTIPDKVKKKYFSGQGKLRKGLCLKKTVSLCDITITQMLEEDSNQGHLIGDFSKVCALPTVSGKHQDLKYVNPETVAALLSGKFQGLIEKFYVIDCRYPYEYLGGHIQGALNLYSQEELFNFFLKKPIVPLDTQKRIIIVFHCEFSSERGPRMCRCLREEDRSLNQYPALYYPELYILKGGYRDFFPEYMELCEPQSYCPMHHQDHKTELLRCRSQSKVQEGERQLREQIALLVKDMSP

Mia-Paca-2 tumors = conditions: active after oral administration; cited from earlier work
Cdc25B = molecular target: T1, Cdc25B (Homo sapiens, UniProt P30305); conditions: cited from earlier work
T1 sequence (P30305 1-580): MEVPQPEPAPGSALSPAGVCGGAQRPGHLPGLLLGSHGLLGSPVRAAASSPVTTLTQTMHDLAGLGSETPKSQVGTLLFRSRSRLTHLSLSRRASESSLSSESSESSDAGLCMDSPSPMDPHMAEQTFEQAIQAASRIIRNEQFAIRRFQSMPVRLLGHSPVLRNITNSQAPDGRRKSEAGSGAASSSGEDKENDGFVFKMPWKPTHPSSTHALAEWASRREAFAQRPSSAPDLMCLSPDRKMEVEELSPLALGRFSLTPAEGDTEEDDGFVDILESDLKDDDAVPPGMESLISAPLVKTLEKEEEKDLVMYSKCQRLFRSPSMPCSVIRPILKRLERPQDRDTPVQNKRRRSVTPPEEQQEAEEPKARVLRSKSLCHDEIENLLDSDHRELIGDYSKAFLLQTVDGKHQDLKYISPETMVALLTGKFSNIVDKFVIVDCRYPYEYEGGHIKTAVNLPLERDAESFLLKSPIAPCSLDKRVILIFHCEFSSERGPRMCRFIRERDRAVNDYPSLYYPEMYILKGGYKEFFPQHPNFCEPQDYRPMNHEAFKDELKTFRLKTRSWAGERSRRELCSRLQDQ

Cdc25A [2] = molecular target: Cdc25A (Homo sapiens, UniProt P30304); conditions: cited from earlier work
Chain of Cdc25A (P30304 whole entry): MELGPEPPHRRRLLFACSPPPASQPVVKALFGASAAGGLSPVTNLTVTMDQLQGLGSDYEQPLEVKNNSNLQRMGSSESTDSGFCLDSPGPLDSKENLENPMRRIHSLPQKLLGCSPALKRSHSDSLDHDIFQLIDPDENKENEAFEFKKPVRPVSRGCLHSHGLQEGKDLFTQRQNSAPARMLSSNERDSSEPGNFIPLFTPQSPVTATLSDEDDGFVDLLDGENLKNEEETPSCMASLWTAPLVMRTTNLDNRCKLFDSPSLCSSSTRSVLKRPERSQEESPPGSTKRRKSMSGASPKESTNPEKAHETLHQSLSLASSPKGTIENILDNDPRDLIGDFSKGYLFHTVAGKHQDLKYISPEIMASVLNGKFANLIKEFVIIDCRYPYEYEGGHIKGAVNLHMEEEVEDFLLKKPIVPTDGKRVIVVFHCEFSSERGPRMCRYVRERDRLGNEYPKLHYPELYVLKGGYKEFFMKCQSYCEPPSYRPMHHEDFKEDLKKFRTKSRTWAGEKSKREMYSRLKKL

[3] = test system: human cell lines (tumor cell proliferation); conditions: cited from earlier work
CDC25A mRNA = CDC25A mRNA by quantitative RT-PCR; format: cell-based, human; conditions: two hours, 100 nM, MOLM-14 cells
Description: (a) MV4-11 cells were first treated by cycloheximide (50 μg/mL) for 90 minutes in order to completely down regulate CDC25A. Cells were then placed in normal culture conditions in the presence (lower panel) or the absence (upper panel) of FLT3 inhibitor (100 nM), and western blot analysis of CDC25A was performed at the indicated times. The FLT3 inhibitor was added 30 minutes before medium wash. This western blot is representative of three independent experiments. […] (b) CDC25A mRNA expression was measured by quantitative RT-PCR after FLT3 inhibition for 2 hours (100 nM). […] (c) MV4-11 cells were treated with cycloheximide (50 μg/mL) for the indicated times. FLT3 inhibitor III (100 nM) was added 30 minutes before cycloheximide treatment, and left in the medium. This western blot is representative of three independent experiments.
Quantitative RT-PCR. Total RNA was extracted by RNeasy Kit (Qiagen) according to the manufacturer. RNA quality and purity was assessed by using the Agilent RNA 6000 Nano kit (Agilent Technologies, Santa Clara, Calif., USA). cDNA was generated with the SuperScript III First-Strand Synthesis System for RT-PCR (Invitrogen) following the manufacturer instructions. […] Results were analyzed with the LightCycler®480 software release 1.5.0 SP4 using the conventional ΔΔCt method.

MOLM-14 and MV4-11 cells = experiment: Differentiation of FLT3-ITD AML cell lines (surface markers, morphology); format: cell-based, human; conditions: another CDC25 inhibitor
Description: (a-b) MOLM-14 and MV4-11 cells were treated for different times with IRC-083864 (100 nM and 200 nM) and the expression of the cell surface markers CD11b, CD14 and CD15 were followed by flow cytometry analysis. (c) MOLM-14 and MV4-11 cells were treated for different times with IRC-083864 (100 nM) and morphological changes were estimated by microscopy after cells were cytospun and stained at days 8 and 13. Original magnification ×100. (d) MOLM-14 cells were treated for different times with IRC-083864 (100 nM) and c-myc expression as well as C/EBPα phosphorylation on serine 21 were analyzed by western blot at day 1, and C/EBPε expression after 6 days of treatment. (e) MOLM-14 cells were transfected with CDC25A shRNA The expression of the cell surface markers CD11b, CD14 and CD15 were followed by flow cytometry analysis at day 3 and 6 (upper panel), and their morphology was analyzed by microscopy after 6 days (lower panel). Original magnification ×100. (f) MOLM-14 cells were transfected with CDC25A siRNA, and their morphology was analyzed by microscopy after 3 days (upper panel). Original magnification ×100. The efficiency of CDC25A siRNA was assessed by western blot analysis (lower panel).
Lentiviral infections. To generate lentiviral vectors expressing CDC25A protein, sequences were cloned into the pTrip-TAL-Ires-GFP lentiviral vector. We used 293-T packaging cells, co-transfected with lentiviral protein (GAG, POL, and ENV) encoding plasmids, and plasmids containing a control or CDC25A genes, separately. Supernatants containing lentivirus were collected 48 h after transfection, during 3 consecutive days. MOLM-14 cells were plated at 5×10^5 cells in 200 μl in serum-free medium and 5 μl of lentiviral supernatant was added during 3 h. Cells were then grown in 10% FBS RPMI medium.
Flow cytometry. Apoptotic cells were detected with Annexin V-FITC detection kit from BD Pharmingen (San Diego, Calif., USA) according to the manufacturer instructions. To evaluate AML cell differentiation, cells were stained for 30 min with the following anti-human monoclonal antibodies: CD11b-PE (Beckman Coulter), CD14-FITC (BD Biosciences), CD15-APC (BD Biosciences). For patient samples, additional hCD45-APC-H7 (BD Biosciences), Annexin V-Pacific Blue (BioLegend, San Diego, Calif., USA) and 7-AAD (Sigma) were used; and for bone marrow mice cells, additional CD33-FITC, CD44-PE Cy7, mCD45-PerCP Cy 5.5, CD14-Alexa 700 were used. Data were collected on a LSRII or a LSRFortessa cytometer (BD Biosciences), and analyzed with FlowJo software. A minimum of 10,000 events was collected.
Morphological examination. […] were spun at 500 rpm for 5 minutes onto glass slides and May-Grünwald-Giemsa stained at the Toulouse University Hospital hematology laboratory.

[4] = test system: FLT3-wild type primary AML samples; experiment: Differentiation of FLT3 wild-type primary AML samples; format: cell-based, human; conditions: same conditions
Excerpt: Patient samples. Patient AML samples were obtained after informed consent in accordance with the Declaration of Helsinki and stored at the HIMIP collection. According to the French law, HIMIP collection has been declared to the Ministry of Higher Education and Research (DC 2008-307 collection 1) and obtained a transfer agreement (AC 2008-129) after approbation by ethical committees (Comité de Protection des Personnes Sud-Ouest et Outremer II and APHP ethical committee). Clinical and biological annotations of the samples have been declared to the CNIL (Comité National Informatique et Libertés i.e. Data processing and Liberties National Committee). Frozen cells were thawed in IMDM medium with 20% FBS and immediately processed for treatment. All patients were diagnosed at the Department of Hematology of Toulouse University Hospital.
Co-cultures. […]
Flow cytometry. Apoptotic cells were detected with Annexin V-FITC detection kit from BD Pharmingen (San Diego, Calif., USA) according to the manufacturer instructions. […] Data were collected on a LSRII or a LSRFortessa cytometer (BD Biosciences), and analyzed with FlowJo software. […]

[5] = test system: transplanted rat hepatoma cells (Fisher F344); conditions: delivered intraperitoneally; cited from earlier work
human Hep 3B tumor cells = conditions: read-out: IC50 growth of human Hep 3B tumor cells; cited from earlier work

## CC(C)(C)c1cc(NC(=O)Nc2ccc(-c3cn4c(n3)sc3cc(OCCN5CCOCC5)ccc34)cc2)no1 [AC220, quizartinib]
CDC25A [1]; MV4-11 and MOLM-14 cells
  CDC25A protein level: induced CDC25A down-regulation

## Cc1nc2c(s1)C(=O)C=C(NCCN(C)C)C2=O [BN82685, reference compound]
Cdc25C
  IC50: 171 nM
Mia-Paca-2 tumors
  growth of Mia-Paca-2 tumors xenografted into nude mice: inhibited the growth
Cdc25B
  IC50: 250 nM
Cdc25A [2]
  IC50: 250 nM
[3]
  growth inhibition in presence of classical resistance mechanisms (drug efflux pumps, P-glycoprotein, multi-drug resistance proteins): unaffected
[3]; treatment time 1 h
  duration of proliferation inhibition after short treatment: 96 h

## c1ccc(-c2cnc(Nc3ccc(OCCN4CCCC4)cc3)s2)cc1 [FLT3 inhibitor III]
CDC25A [1]; KG1, HL-60 (FLT3-wild type) and K562 (FLT3 non-expressing) cells
  CDC25A protein level: did not modify
CDC25A [1]; MV4-11 and MOLM-14 cells
  CDC25A protein level: induced CDC25A down-regulation
CDC25A [1]; cycloheximide 50 μg/mL, inhibitor 100 nM
  stability of CDC25A protein (half-life with cycloheximide): did not significantly modify
CDC25A [1]; time course, 100 nM, FIG. 3a
  accumulation of CDC25A protein (rate of synthesis): significantly decreased
CDC25A mRNA
  CDC25A mRNA level: significantly reduced

## O=C1C(SCCO)=C(SCCO)C(=O)c2ccccc21 [NSC-95397, reference compound]
MOLM-14 and MV4-11 cells
  CD11b, CD14 and CD15 markers expression: modifications
  nuclear morphology: nuclear morphological changes
[4]
  differentiation of FLT3-wild type samples: no evidence of differentiation

## O=C1C(SCCO)=C(SCCO)C(=O)N1c1ccc(-c2ccccc2)cc1 [PM20]
[5]
  growth of transplanted rat hepatoma cells in vivo: inhibits the growth
Human Hep 3B tumor cells
  IC50: 700 nM
